From US6794489B2, “Compositions and methods for treatment of sexual dysfunction” (Palatin Technologies, Inc., priority 1999, dated 2004)

Key:
[1] = Representative Profile in Monkeys Intravenously Delivered
Text: Table printed on a drawing sheet, FIG. 2
Title: Representative Profile in Monkeys Intravenously Delivered

[2] = Profiles in Monkeys Intranasally Delivered
Text: Table printed on a drawing sheet, FIG. 3
Title: Profiles in Monkeys Intranasally Delivered
First reader's note: Columns 2001, 2002 and 2003 are individual monkeys, and the last two columns are their mean and SEM; the substance name is taken from the y-axis label, printed 'Compopund 1'.

[3] = system: Sprague Dawley rats; experiment: Induction of penile erection by intranasal administration; assay type: in vivo, rat; conditions: for % Rats with Penile Erection / Number of Erections/Rat/30 Minutes: intranasal
Protocol: In another series of experiments, a dosing study was conducted in rats by nasal administration of from 15 μg per kg of body weight to 1500 μg per kg of body weight, using Nasal Formulation 1. Based on penile erectile response behavior, the peptide was efficacious at all dose amounts administered, and particularly from 25 μg/kg to 75 μg/kg, with pharacologic effect observed over the range from 15 μg/kg to 1500 μg/kg. […]

[4] = system: Female Long-Evans rats; experiment: Female sexual response, bilevel chambers; assay type: in vivo, rat; conditions: 200 μg/kg subcutaneous
Protocol: Female Long-Evans rats (200-250 g) were house in groups of 2 to 4 depending on size in plastic cages in a colony room maintained on a reversed 12:12 hour light/dark cycle at approximately 21° C. with food and water ad libitum. The rats were ovariectomized bilaterally via lumbar incisions one week prior to preliminary tests of sexual behavior. Intact Long-Evans male rats served as stimulus males, and were sexual vigorous, initiating copulatory activity with females within 15 seconds of being placed into bilevel chambers containing female rats. Following preliminary tests of sexual behavior, females were administered subcutaneous injections of estradiol benzoate, 10 μg in 0.1 mL of sesame oil, forty-eight hours prior to testing, and progesterone, 500 μg in 0.1 mL of sesame oil, four hours prior to testing. Administration of estradiol benzoate and progesterone induced full sexual receptivity in the female rats. Female rats were placed in bilevel chambers five minutes prior to the introduction of a sexual vigorous male. […] Tests were videotaped and score subsequently for appetitive level changing during the five minute period prior to the introduction of the male, lordosis quotients and reflex magnitudes, incidents of solicitation (head-wise orientation and runaway), hops and darts, pacing (level changes per mount), female mounts and defensive responses. […]

[5] = Pharmacokinetics in rats following IV administration; assay type: in vivo, rat; conditions: intravenous 100 μg/kg, bioassay
[6] = system: Female Long-Evans rats; experiment: Female sexual response, unilevel pacing chambers; assay type: in vivo, rat; conditions: 200 μg/kg subcutaneous
Text: Tests were videotaped and scored as in Example 13, with pacing defined as number of exits from and returns to the side with the male; and exist and return latencies following mounts, intromissions or ejaculations. FIGS. 8A, 8B, 8C and 8D show the results.

[7] = system: ferrets; experiment: Ferret emesis study; assay type: in vivo; conditions: animals out of six
Text: Ferrets are a recognized model for emetic studies. The vehicle for both intravenous and intranasal administration was saline. The positive control was cisplatin, known to induce vomiting in ferrets. The data is described as the number of animals out of a group of six showing signs of vomiting.

[8] = system: Sprague Dawley rats; experiment: Inhibition of Compound 1-induced penile erection by melanocortin antagonist; assay type: in vivo, rat; conditions: 25 or 50 μg/kg nasal in Nasal Formulation 1, control groups
[9] = system: Sprague Dawley rats; experiment: Induction of penile erection by intravenous injection; conditions: for Dose resulting in equivalent penile response by intravenous injection / Efficacious dose (penile erection in 100% of animals): rats; for Efficacious dose (penile erection in 100% of animals): intravenous injection
[10] = PROFILE IN RATS INTRAVENOUSLY ADMINISTERED
Text: Table printed on a drawing sheet, FIG. 1
Title: PROFILE IN RATS INTRAVENOUSLY ADMINISTERED
Section band inside the table: i.v.

[11] = system: men with psychogenic erectile dysfunction; conditions: subcutaneous, 0.025 to 0.157 mg/kg, cited from earlier work

Question: With `CCCC[C@H](NC(C)=O)C(=O)N[C@H]1CC(=O)NCCCC[C@@H](C(=O)O)NC(=O)[C@H](Cc2c[nH]c3ccccc23)NC(=O)[C@H](CCCNC(=N)N)NC(=O)[C@@H](Cc2ccccc2)NC(=O)[C@H](Cc2c[nH]cn2)NC1=O` [Compopund 1] as the molecule, how does the “AUC” value [1] read?
Answer: Its value is 3730.0 ng·min/mL.

Question: What about the “Cmax” value [1] of the same molecule?
Answer: Its value is 1149.0 ng/mL.

Question: What about the “Tmax” value [1] of the same molecule?
Answer: The value was 0 h.

Question: What about the “%Bioavailability” value [2] of the same molecule?
Answer: The value was 0.73%.

Question: What about the “AUC” value [2] of the same molecule?
Answer: Its value is 27.16 ng·min/mL.

Question: What about the “Cmax” value [2] of the same molecule?
Answer: Its value is 0.38 ng/mL.

Question: And the “Tmax” value [2]?
Answer: Its value is 50.00 min.

Question: Which “% Rats with Penile Erection” value ([3]; 15 μg/kg) does the source give for `CCCCC(NC(C)=O)C(=O)NC1CC(=O)NCCCCC(C(=O)O)NC(=O)C(Cc2c[nH]c3ccccc23)NC(=O)C(CCCNC(=N)N)NC(=O)C(Cc2ccccc2)NC(=O)C(Cc2c[nH]cn2)NC1=O` [Compound 1, Ac-Nle-cyclo(-Asp-His-D-Phe-Arg-Trp-Lys)-OH] here?
Answer: The value was 50%.

Question: And the “Number of Erections/Rat/30 Minutes” value ([3]; 15 μg/kg)?
Answer: The value was 0.5.

Question: What about the “% Rats with Penile Erection” value ([3]; 25 μg/kg) of the same molecule?
Answer: The value was 100%.

Question: And the “Number of Erections/Rat/30 Minutes” value ([3]; 25 μg/kg)?
Answer: The value was 2.0.

Question: What about the “% Rats with Penile Erection” value ([3]; 37 μg/kg) of the same molecule?
Answer: The value was 100%.

Question: And the “Number of Erections/Rat/30 Minutes” value ([3]; 37 μg/kg)?
Answer: The value was 2.0.

Question: What about the “% Rats with Penile Erection” value ([3]; 50 μg/kg) of the same molecule?
Answer: Its value is 100%.

Question: What about the “Number of Erections/Rat/30 Minutes” value ([3]; 50 μg/kg) of the same molecule?
Answer: Its value is 2.0.

Question: What about the “% Rats with Penile Erection” value ([3]; 75 μg/kg) of the same molecule?
Answer: The value was 100%.

Question: What about the “Number of Erections/Rat/30 Minutes” value ([3]; 75 μg/kg) of the same molecule?
Answer: Its value is 2.5.

Question: And the “% Rats with Penile Erection” value ([3]; 500 μg/kg)?
Answer: Its value is 100%.

Question: And the “Number of Erections/Rat/30 Minutes” value ([3]; 500 μg/kg)?
Answer: The value was 1.5.

Question: What about the “% Rats with Penile Erection” value ([3]; 1000 μg/kg) of the same molecule?
Answer: The value was 100%.

Question: What about the “Number of Erections/Rat/30 Minutes” value ([3]; 1000 μg/kg) of the same molecule?
Answer: Its value is 1.5.

Question: And the “% Rats with Penile Erection” value ([3]; 1500 μg/kg)?
Answer: The value was 50%.

Question: What about the “Number of Erections/Rat/30 Minutes” value ([3]; 1500 μg/kg) of the same molecule?
Answer: Its value is 0.5.

Question: What about the “Rates of appetitive level changing, pacing, lordosis, female mounts or rejection responses” value [4] of the same molecule?
Answer: The value was “without affecting”.

Question: And the Number of solicitations ([4]; fully and partially primed female rats)?
Answer: Its Number of solicitations is “increased the number of solicitations significantly”.

Question: What about the “Pharmacokinetic profile in plasma” value [5] of the same molecule?
Answer: Its value is “bi-phasic”.

Question: And the Ejaculation return latencies [6]?
Answer: Its Ejaculation return latencies is “increase”.

Question: And the “Lordosis or defensive responding” value [6]?
Answer: Its value is “no effect”.

Question: And the “Number of exits or returns made by the females” value [6]?
Answer: Its value is “no significant effect”.

Question: What about the “Number of solicitations, hops and darts, and female mounts compared to controls” value ([6]; fully primed) of the same molecule?
Answer: The value was “increased the number of solicitations, hops and darts, and female mounts significantly”.

Question: And the “Signs of vomiting (proportions)” value ([7]; 10 μg/kg IV)?
Answer: The value was 0/6.

Question: What about the “Signs of vomiting (proportions)” value ([7]; 30 μg/kg IV) of the same molecule?
Answer: The value was 6/6.

Question: What about the “Signs of vomiting (proportions)” value ([7]; 100 μg/kg IN) of the same molecule?
Answer: Its value is 0/6.

Question: What about the “Signs of vomiting (proportions)” value ([7]; 100 μg/kg IV) of the same molecule?
Answer: The value was 6/6.

Question: And the “Signs of vomiting (proportions)” value ([7]; 300 μg/kg IN)?
Answer: The value was 1/6.

Question: What about the “Signs of vomiting (proportions)” value ([7]; 500 μg/kg IN) of the same molecule?
Answer: Its value is 1/6.

Question: And the “Rats with observed erections, without pre-administration of SHU9119” value [8]?
Answer: Its value is 100%.

Question: And the “% Rats with Penile Erection” value ([9]; intravenous, 0.5 μg/kg)?
Answer: The value was 50%.

Question: What about the “Number of Erections/Rat/30 Minutes” value ([9]; intravenous, 0.5 μg/kg) of the same molecule?
Answer: Its value is 0.5.

Question: And the “% Rats with Penile Erection” value ([9]; intravenous, 1.0 μg/kg)?
Answer: Its value is 100%.

Question: What about the “Number of Erections/Rat/30 Minutes” value ([9]; intravenous, 1.0 μg/kg) of the same molecule?
Answer: The value was 1.0.

Question: And the “% Rats with Penile Erection” value ([9]; intravenous, 2.0 μg/kg)?
Answer: Its value is 100%.

Question: And the “Number of Erections/Rat/30 Minutes” value ([9]; intravenous, 2.0 μg/kg)?
Answer: The value was 2.0.

Question: What about the “Rats having multiple erections” value ([9]; intravenous, 2 μg/kg, 30 minutes observation period) of the same molecule?
Answer: The value was “approximately 50%”.

Question: And the “% Rats with Penile Erection” value ([9]; intravenous, 5.0 μg/kg)?
Answer: The value was 100%.

Question: What about the “Number of Erections/Rat/30 Minutes” value ([9]; intravenous, 5.0 μg/kg) of the same molecule?
Answer: The value was 1.8.

Question: What about the “% Rats with Penile Erection” value ([9]; intravenous, 10.0 μg/kg) of the same molecule?
Answer: The value was 100%.

Question: And the “Number of Erections/Rat/30 Minutes” value ([9]; intravenous, 10.0 μg/kg)?
Answer: Its value is 2.5.

Question: What about the “Dose resulting in equivalent penile response by intravenous injection” value [9] of the same molecule?
Answer: The value was 2 μg/kg of body weight.

Question: What about the “Efficacious dose (penile erection in 100% of animals)” value [9] of the same molecule?
Answer: The value was 0.001 mg/kg.

Question: And the α-phase [10]?
Answer: Its α-phase is 5 min.

Question: And the β-phase [10]?
Answer: The β-phase was 25 min.

Question: For Melanotan-II [reference compound], which “Treated men developing clinically apparent erections” value [11] is on record?
Answer: The value was 8 of 10.

Question: And the “Mean duration of tip rigidity greater than 80%” value ([11]; placebo 3.0 minutes)?
Answer: Its value is 38 min.

Question: What about the “% Rats with Penile Erection” value ([3]; 100 μg/kg) of the same molecule?
Answer: The value was 25%.

Question: And the “Number of Erections/Rat/30 Minutes” value ([3]; 100 μg/kg)?
Answer: The value was 0.25.

Question: What about the “% Rats with Penile Erection” value ([3]; 500 μg/kg) of the same molecule?
Answer: The value was 100%.

Question: What about the “Number of Erections/Rat/30 Minutes” value ([3]; 500 μg/kg) of the same molecule?
Answer: Its value is 1.0.

Question: And the “Period of the penile erection response after nasal administration” value ([3]; rats, 30 minute observation in ten-minute periods)?
Answer: The value was 2nd and 3rd ten-minute period.

Question: And the “% Rats with Penile Erection” value ([9]; intravenous, 10.0 μg/kg)?
Answer: The value was 17%.

Question: What about the “Number of Erections/Rat/30 Minutes” value ([9]; intravenous, 10.0 μg/kg) of the same molecule?
Answer: The value was 0.3.

Question: What about the “% Rats with Penile Erection” value ([9]; intravenous, 100.0 μg/kg) of the same molecule?
Answer: Its value is 75%.

Question: What about the “Number of Erections/Rat/30 Minutes” value ([9]; intravenous, 100.0 μg/kg) of the same molecule?
Answer: Its value is 1.0.

Question: And the “Optimal efficacious dose intravenously” value ([9]; rat model of penile erection)?
Answer: The value was 100 μg/kg of body weight.

Question: And the “Dose resulting in equivalent penile response by intravenous injection” value [9]?
Answer: The value was 100 μg/kg of body weight.

Question: What about the “Efficacious dose (penile erection in 100% of animals)” value [9] of the same molecule?
Answer: Its value is ≥ 0.1 mg/kg.
